Measurements from patent publication US20220273768A1 (The George Washington University, priority 2019, published 2022).
Read-outs that look alike come from different tables or passages of the source.

Experiments:
[1] = tested on: hypoglossal motoneurons (HGN); assay: Excitatory post-synaptic currents in HGNs evoked by photoexcitation of ChR2 fibers from LepR^b+ neurons; assay type: cell-based, mouse
[2] = tested on: hypoglossal motoneurons (HGN); assay: HGN firing per fictive inspiratory burst in bursting slice preparation; assay type: cell-based, mouse; settings: DAMGO 500 nM; then leptin 200 nM with DAMGO; prior to DAMGO 3-5
[3] = tested on: hypoglossal neurons (HGNs); assay: Excitatory post-synaptic currents (EPSCs) recorded in vitro from HGNs; assay type: cell-based, mouse; settings: for spontaneous excitatory post-synaptic currents (EPSCs) in HGNs: FIG. 7, DAMGO then leptin added to DAMGO; for EPSC frequency in HGNs: FIG. 16, n=7, DAMGO focally applied, then 200 nM leptin co-infusion
DIO C57BL/6J mice [4] = tested on: DIO C57BL/6J mice
[5] = tested on: STAT3 phosphorylation (pSTAT3) via LepR^b; assay: Leptin signaling by STAT3 phosphorylation (pSTAT3) immunofluorescent staining of brain sections; assay type: in vivo, mouse; settings: DIO mice
lean C57BL/6J mice [6] = assay: Blood pressure by telemetry during SC leptin infusion; assay type: in vivo, mouse
Protocol: Blood pressure was measured by telemetry (DSI) implanted in the left femoral artery of freely behaving lean C57BL/6J mice at baseline and during leptin infusion (120 μg/day for 3 days via a SC pump) before and after carotid body (CB) denervation or sham surgery.

[7] = tested on: LepR^b+ neurons in the dorsomedial hypothalamus (DMH); assay type: cell-based, mouse
lean C57BL/6J mice [8] = assay: Barometric plethysmography during subcutaneous leptin infusion in lean mice; assay type: in vivo, mouse; settings: SC osmotic pump leptin 0.2 mg/kg/hour
Source text: Leptin increases minute ventilation, stimulates control of breathing and reverses UAO during sleep in leptin deficient ob/ob mice as shown in Pho et al., Journal of Applied Physiology 120, 78-86 (2016); Yao et al., Sleep 39, 1097-106 (2016); and O'Donnell et al., American Journal of Respiratory & Critical Care Medicine 159, 1477-1484 (1999), the disclosures of which are incorporated herein in their entirety. As such, it was proposed that high doses of leptin also stimulate ventilation and control of breathing in lean C57BL/6J mice. […] In six mice, a subcutaneous osmotic pump (DURECT, Cupertino, Calif., USA) filled with saline was implanted and baseline minute ventilation (VE) and the hypoxic ventilatory response (HVR) were measured by exposing mice to room air and 10% O2. […] VE normalized to body weight and the hypoxic ventilatory response (HVR) was calculated as the ratio of [VE (10% O2)−VE (20.9% O2) to the change in FiO2 (ΔFiO2=10.9% between normoxia and hypoxia) and reported as ΔVE/ΔFiO2. Subsequently, a subcutaneous osmotic pump for leptin infusion (0.2 mg/kg/hour) was implanted and the HVR was measured. […]

[9] = Leptin detection in brain tissue by ELISA after IN administration; assay type: in vivo, mouse; settings: IN leptin 0.8 mg/kg in 1% BSA, 20 minutes, vs IN vehicle
Protocol: To determine the effect of intranasal (IN) leptin in the brain, leptin detection in brain tissue by ELISA was assessed after IN administration. In brief, male lean C57BL/6J mice (30 g of weight), were treated with IN leptin (24 μl) at 0.8 mg/kg in 1% BSA or 1% BSA and sacrificed 20 minutes later. Brains were extracted, then the olfactory bulbs, hypothalami and medullas were isolated, quick frozen in liquid nitrogen and stored at −80° C. For leptin level measurements, brain tissue was homogenized in 160 mM KCL, 25 mM HEPES, 0.2% Triton X-100 and protease inhibitors. Total protein concentrations were determined using a BioRad DC Protein kit and ELISA for leptin was performed with a Millipore kit.

[10] = Plasma leptin levels after IN and IP leptin; assay type: in vivo, mouse; settings: IN leptin, 1, 3 and 6 hours vs baseline, n=4
Protocol: FIG. 18 depicts a graph showing plasma leptin levels measured 1, 3, and 6 hours after IN and IP leptin administrations, as compared to baseline, n=4, for each treatment. *p<0.05.

DIO C57BL/6J mice [11] = assay: Sleep study (plethysmography) in diet-induced obese mice, mouse model of OSA; assay type: in vivo; settings: IN leptin 0.4 mg/kg single dose
[12] = SC leptin 120 μg/day for 3 days

Compound: N[C@H](CCCP(=O)(O)O)C(=O)O [APV, (2R)-amino-5-phosphonovaleric acid]
- photoexcitation-evoked excitatory post-synaptic currents in HGNs [1]: blunted, but not blocked

Compound: N#Cc1cc2c(cc1[N+](=O)[O-])=NC(=O)C(=O)N=2 [CNQX, 6-cyano-7-nitroquinoxaline-2,3-dione]
- photoexcitation-evoked excitatory post-synaptic currents in HGNs ([1]; 50 μM APV and 50 μM CNQX applied together): blunted, but not blocked

Compound: C[C@@H](NC(=O)[C@@H](N)Cc1ccc(O)cc1)C(=O)NCC(=O)N(C)[C@@H](Cc1ccccc1)C(=O)NCCO [DAMGO, [D-Ala^2, N-MePhe^4, Gly-ol]-enkephalin, reference compound]
- action potentials in HGNs associated with each burst [2]: 2-3 action potentials
- spontaneous excitatory post-synaptic currents (EPSCs) in HGNs [3]: rapidly depressed
- EPSC frequency in HGNs [3]: significantly reduced

Compound: CN1CC[C@]23c4c5ccc(O)c4O[C@H]2[C@@H](O)C=C[C@H]3[C@H]1C5 [morphine, reference compound]
- IFL prevalence (frequency of upper airway obstruction) (DIO C57BL/6J mice [4]; FIG. 3B experiment, DIO mice n=4, morphine 10 mg/kg): 39.6±9.3 % of all breaths
- maximal inspiratory flow (Vimax) during IFL (DIO C57BL/6J mice [4]; FIG. 3C, DIO mice n=4, morphine 10 mg/kg): decreasing
- minute ventilation during IFL (VE IFL) (DIO C57BL/6J mice [4]; FIG. 3D, DIO mice n=4, morphine 10 mg/kg): decreasing
- respiratory rate during NFL breathing (DIO C57BL/6J mice [4]; FIG. 3E experiment, morphine 10 mg/kg): decreased
- non-flow limited breathing (NFL), respiratory depression (DIO C57BL/6J mice [4]; FIG. 3E, DIO mice n=4, morphine 10 mg/kg): suppressed
- respiratory depression (minute ventilation, VE) (DIO C57BL/6J mice [4]; IP morphine 80 mg/kg, DIO mice): induced respiratory depression
- number of apneic events during NREM sleep (DIO C57BL/6J mice [4]; NREM sleep, n=9, morphine 10 mg/kg, baseline 13.9±3.7): 91.5±20.0
- frequency of upper airway obstruction (IFL breaths), NREM sleep (DIO C57BL/6J mice [4]; morphine 10 mg/kg, baseline 11.9±5.5%): 56.8±4.8 % of all breaths
- minute ventilation during obstructed (IFL) breathing, NREM sleep (DIO C57BL/6J mice [4]; n=5, morphine 10 mg/kg): significantly decreased
- maximal inspiratory flow (Vimax) during obstructed (IFL) breathing, NREM sleep (DIO C57BL/6J mice [4]; n=5, morphine 10 mg/kg, baseline 3.4±0.4): 2.3 ± 0.5 mL/min
- minute ventilation (VE), non-flow limited respiration, NREM sleep (DIO C57BL/6J mice [4]; n=9, morphine 10 mg/kg, baseline 1.2±0.1): 0.7 ± 0.1 mL/min/g
- inspiratory flow limitation (IFL) (DIO C57BL/6J mice [4]; sub-lethal IP morphine 80 mg/kg, DIO mice): induced severe inspiratory flow limitation

Compound: leptin
- signaling (STAT3 phosphorylation) in dorsal medulla, RVLM, CC, DMV, NA, XII ([5]; IN leptin single dose, one hour): increased
- number of pSTAT3-positive cells in the hypothalamus and medulla ([5]; IN leptin vs IP leptin and vehicle groups): highest
- signaling (STAT3 phosphorylation) in dorsal medulla or RVLM ([5]; IP leptin single dose, one hour): no effect
- action potentials in HGNs associated with each burst [2]: 3-4 action potentials
- increase in blood pressure at night (lean C57BL/6J mice [6]; [12]): 16 mm Hg
- increase in blood pressure during the day (9 am-9 pm, light phase) (lean C57BL/6J mice [6]; [12]): 13 mm Hg
- leptin-mediated increase in blood pressure after carotid body (CB) denervation (lean C57BL/6J mice [6]; SC leptin 120 μg/day, not abolished by sham surgery): completely abolished
- effect on LepR^b+ neurons (firing) [7]: excited
- hypoxic ventilatory response (HVR, ΔVE/ΔFiO2) (lean C57BL/6J mice [8]; 10% O2 vs room air, saline pump 0.23): 0.31 ml/minutes/grams/ΔFiO2
- minute ventilation (VE) (lean C57BL/6J mice [8]; wakefulness, saline pump 1.1): 1.5 ml/minutes/grams
- leptin levels in the hypothalamus [9]: strong increase
- leptin levels in the medulla [9]: significantly increased
- leptin levels in the olfactory bulb [9]: significantly increased
- plasma leptin levels [10]: did not increase
- IFL prevalence (frequency of upper airway obstruction) (DIO C57BL/6J mice [4]; mouse, in vivo): decreased
- apnea-hypopnea index (AHI) (DIO C57BL/6J mice [4]; mouse, in vivo): dramatically reduced
- frequency of upper airway obstruction (IFL breaths), NREM sleep (DIO C57BL/6J mice [4]; mouse, in vivo): decreased
- inspiratory flow limitation (IFL) (DIO C57BL/6J mice [4]; mouse, in vivo): markedly improved
- leptin effects on apneas, VE, IFL frequency, VImax and VE during IFL (DIO C57BL/6J mice [4]; mouse, in vivo): no longer significant
- maximal inspiratory flow (Vimax) during IFL (DIO C57BL/6J mice [4]; mouse, in vivo): increases
- maximal inspiratory flow (Vimax) during obstructed (IFL) breathing, NREM sleep (DIO C57BL/6J mice [4]; mouse, in vivo): reversals of morphine-induced reductions
- minute ventilation (VE), non-flow limited respiration, NREM sleep (DIO C57BL/6J mice [4]; mouse, in vivo): increase
- minute ventilation during IFL (VE IFL) (DIO C57BL/6J mice [4]; mouse, in vivo): increases
- minute ventilation during obstructed (IFL) breathing, NREM sleep (DIO C57BL/6J mice [4]; mouse, in vivo): reversals of morphine-induced reductions
- non-flow limited breathing (NFL), respiratory depression (DIO C57BL/6J mice [4]; mouse, in vivo): prevented
- number of apneic events during NREM sleep (DIO C57BL/6J mice [4]; mouse, in vivo): decreased
- respiratory depression (minute ventilation, VE) (DIO C57BL/6J mice [4]; mouse, in vivo): prevented
- respiratory rate (DIO C57BL/6J mice [4]; mouse, in vivo): increasing
- respiratory rate during NFL breathing (DIO C57BL/6J mice [4]; mouse, in vivo): did not change
- tidal volume (VT) (DIO C57BL/6J mice [4]; mouse, in vivo): increasing
- tidal volume during NFL breathing (DIO C57BL/6J mice [4]; mouse, in vivo): 0.44±0.03
- ODI (number of oxyhemoglobin desaturations ≥4%/hour) (DIO C57BL/6J mice [11]): dramatic decrease
- maximal inspiratory flow (Vimax) during flow limited obstructed breathing (DIO C57BL/6J mice [11]): increased
- minute ventilation (VE) during flow limited obstructed breathing (DIO C57BL/6J mice [11]): increased
- non-flow limited breathing (DIO C57BL/6J mice [11]): increased
- spontaneous excitatory post-synaptic currents (EPSCs) in HGNs [3]: successfully reversed
- EPSC frequency in HGNs [3]: restored
